The subject of one test is IL-6. The test is described as follows: IL-6 inhibition in LPS-stimulated human peripheral blood mononuclear cells (HTRF). The conditions noted are these: Homo sapiens, PBMC; for EC50: 22 h; for inhibition at 10 µM: read-out: percentage in parentheses after EC50 >10. On the technique in general: In TR-FRET formats the signal depends on donor and acceptor labels being close together.

The test system of test [1] is α-smooth muscle actin (aSMA) positive LL29 cells. Kind of test: Inhibition of the fibrotic process: αSMA staining in TGF-β1 treated LL29 fibroblasts from IPF patients. To be noted: Homo sapiens, Fibroblast; for EC50: 96 h.
In the next test the target is DYRK1A kinase (Homo sapiens, UniProt Q13627). Kind of test: DYRK1A kinase activity (Ser/Thr 18 peptide Z-lyte FRET assay).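 Further: kinase activity read as coumarin/fluorescein emission ratio after development step, with unphosphorylated and phosphorylated peptide forms setting 0% and 100% controls, values from dose-response curves.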 To be noted: recombinant DYRK1A, 30 μM ATP, one hour at room temperature. In kind it is biochemical.
In test [2] the test system is Wnt-responsive Sp5-Luc reporter in SW480 colon carcinoma cells. The test is described as follows: Screening assay for Wnt activity (Sp5-Luc reporter gene assay). The conditions noted are these: Homo sapiens; for EC50: SW480. A general note: A reporter such as luciferase makes a cellular process visible.
For test [3], the system named is SW480 colon carcinoma cells. The test is described as follows: Cell viability assay (CellTiter-Glo). The conditions noted are these: Homo sapiens; for EC50: SW480, 96 h; for inhibition at 10 µM: SW480, read-out: percent inhibition at 10 μM. In general terms: In ATP-based viability assays light output follows the ATP content of the culture.
The target in a further test is GSK3β kinase (Homo sapiens, UniProt P49841). The test is described as follows: GSK3β kinase activity (Ser/Thr 09 peptide Z-lyte FRET assay). In kind it is biochemical. To be noted: recombinant kinase, 46 μM ATP, one hour at room temperature; read-out: EC50.
Test [4] deals with Tau phosphorylation at Ser396 (pSer396). Kind of test: Tau phosphorylation at Ser396 (pSer396) in SH-SY5Y cells, ELISA / western blot.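 Further: decrease in pSer396 Tau measured in lysates of treated cells by colorimetric ELISA or chemiluminescent western blot, same pSer396 antibody for both.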 In kind it is cell-based, human. The conditions noted are these: Homo sapiens; SH-SY5Y cells, overnight (16-18 h); read-out: pSer396 Tau EC50.
Experimental: Two days before treatment, cells were seeded onto 96 well plates at 5×10^4 cells/well.
The above synthesized compounds were screened using the cell assay procedure to assess decrease Tau phosphorylation at Ser396 (pSer396) described below.
Cells were lysed with RIPA buffer complemented with phosphatase and protease inhibitors then lysates were spun down at 12,000 g for 10 min to remove any cellular debris.

Molecules are shown by their SMILES.

EC50 and inhibition data for seven compounds are collected here from patent publication US10703748B2, “Diazanaphthalen-3-yl carboxamides and preparation and use thereof” (Samumed, LLC, priority 2017, dated 2020).

For orientation: EC50 means the concentration needed to bring the measured effect to its halfway point.

Sequence of GSK3β kinase (P49841 whole entry): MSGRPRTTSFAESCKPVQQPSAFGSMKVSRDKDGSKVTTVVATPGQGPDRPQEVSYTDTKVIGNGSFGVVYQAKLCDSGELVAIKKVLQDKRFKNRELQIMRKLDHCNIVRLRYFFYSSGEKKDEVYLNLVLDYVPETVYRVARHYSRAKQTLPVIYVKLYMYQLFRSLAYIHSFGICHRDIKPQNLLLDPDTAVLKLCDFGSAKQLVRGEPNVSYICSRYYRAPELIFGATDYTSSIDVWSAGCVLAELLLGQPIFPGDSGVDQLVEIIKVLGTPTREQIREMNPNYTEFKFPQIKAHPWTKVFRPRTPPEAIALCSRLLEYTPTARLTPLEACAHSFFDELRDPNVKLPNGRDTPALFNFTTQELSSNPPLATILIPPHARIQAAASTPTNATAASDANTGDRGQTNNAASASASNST

With `O=C(Nc1ncc2ccc(-c3cncc(N[C@H]4CCNC[C@@H]4F)n3)cc2n1)C1CC1` [Compound 1785, N-(7-(6-(((3S,4S)-3-Fluoropiperidin-4-yl)amino)pyrazin-2-yl)quinazolin-2-yl)cyclopropanecarboxamide], the EC50 with IL-6 is greater than 10000 nM; in test [1], 4000 nM; at DYRK1A kinase, 7 nM; in test [2] it was 4270 nM; in test [3] it was greater than 10000 nM; at GSK3β kinase, 135 nM. Moreover, in test [4], the 50% effective concentration (EC50) amounted to 5660 nM. Also, the inhibition at 10 µM was 8.9% in the test with IL-6 and 34.3% in test [3].

Consider `CC(C)CN1CCC(CC(=O)Nc2cc3cc(-c4cnn(C)c4)ncc3cn2)C1` (stereo not shown) [Compound 3749, 2-(1-Isobutylpyrrolidin-3-yl)-N-(6-(1-methyl-1H-pyrazol-4-yl)-2,7-naphthyridin-3-yl)acetamide], for which the EC50 worked out at 8800 nM in the test on IL-6; 167 nM in test [1]; 10 nM on DYRK1A kinase; 92 nM in test [2]; 3610 nM in test [3]; 6 nM at GSK3β kinase. For the same compound, the concentration for a half-maximal effect (EC50) in test [4] came to 87 nM.

`Cn1cc(-c2cc3cc(NC(=O)c4ccnc(OC5CCNCC5)c4)ncc3cn2)cn1` [Compound 3780, N-(6-(1-Methyl-1H-pyrazol-4-yl)-2,7-naphthyridin-3-yl)-2-(piperidin-4-yloxy)isonicotinamide]: the concentration giving a half-maximal response (EC50) in the test on IL-6 is greater than 10000 nM; in test [1], 4760 nM; on DYRK1A kinase, 16 nM; in test [2], 1530 nM; in test [3], 2260 nM; at GSK3β kinase, 275 nM. Moreover, the EC50 in test [4] is greater than 10000 nM. For the same compound, in the test on IL-6, the inhibition at 10 µM stood at 6.7%.

Regarding `CCN(CC)CC(=O)Nc1cc2cc(-c3cnn(C)c3CN3CCCCC3)ncc2cn1` [Compound 3910, 2-(Diethylamino)-N-(6-(1-methyl-5-(piperidin-1-ylmethyl)-1H-pyrazol-4-yl)-2,7-naphthyridin-3-yl)acetamide], the concentration for a half-maximal effect (EC50) in the test with IL-6 was greater than 10000 nM; in test [1] it was 1070 nM; at DYRK1A kinase, 59 nM; in test [2] it was 1240 nM; in test [3] it was 3540 nM; on GSK3β kinase it was 115 nM. Besides, in test [4], the EC50 is 989 nM. In the test on IL-6, the inhibition at 10 µM was found to be 4.2%.

Consider `Cn1ncc(-c2cc3cc(NC(=O)c4ccnc(N5CCOCC5)c4)ncc3cn2)c1CN1CCOCC1` [Compound 3941, N-(6-(1-methyl-5-(morpholinomethyl)-1H-pyrazol-4-yl)-2,7-naphthyridin-3-yl)-2-morpholinoisonicotinamide], for which the EC50 in the test on IL-6 is greater than 10000 nM; in test [1], 1190 nM; on DYRK1A kinase, 6 nM; in test [2], 1340 nM; in test [3], 2380 nM; on GSK3β kinase it was 79 nM. Moreover, in test [4], the EC50 stood at 571 nM. The inhibition at 10 µM with IL-6 amounted to 5.5%.

Regarding `Cc1nnc(-c2cc3cc(NC(=O)C4CCN(C(=O)c5ccccc5)CC4)ncc3cn2)s1` [Compound 4346, 1-Benzoyl-N-(6-(5-methyl-1,3,4-thiadiazol-2-yl)-2,7-naphthyridin-3-yl) piperidine-4-carboxamide], the 50% effective concentration (EC50) in the test with IL-6 was greater than 10000 nM; in test [1], greater than 10000 nM; at DYRK1A kinase, 37 nM; in test [2], greater than 10000 nM; in test [3], greater than 10000 nM; at GSK3β kinase, 135 nM. Also, the EC50 in test [4] was 1540 nM. Further, the inhibition at 10 µM was determined as 2.4% with IL-6; 21.4% in test [1] (read-out: percentage in parentheses after EC50 >10); 3.8% in test [2] (SW480, read-out: percent inhibition at 10 μM); 12.2% in test [3].

On to `O=C(Nc1cc2cc(-c3cncc(NCC4(F)CNC4)n3)ncc2cn1)C1CC1` [Compound 4498, N-(6-(6-(((3-Fluoroazetidin-3-yl)methyl)amino)pyrazin-2-yl)-2,7-naphthyridin-3-yl)cyclopropanecarboxamide], for which the EC50 in the test with IL-6 turned out to be 3090 nM; in test [1], 436 nM; at DYRK1A kinase, 2 nM; in test [2], 383 nM; in test [3] it was 799 nM; on GSK3β kinase, 1 nM. Further, in test [4], the EC50 turned out to be 37 nM.
